Measurements from patent publication US20230234897A1, “USE OF POLYAMINES, TYRAMINE AND/OR A PLANT EXTRACT CONTAINING SAME TO STABILISE MICROORGANISMS” (AGRO INNOVATION INTERNATIONAL, priority 2020, published 2023).

Tested on: Azotobacter chroococcum
Assay: Growth of Azotobacter chroococcum with or without osmotic stress (0.3 M NaCl), glycine betaine versus extract
Type: cell-based
Settings: for Bacterial concentration at 72 h / Survival rate relative to the strain under non-stressing conditions without addition of the extract / Survival rate relative to the strain under salt stress conditions, without addition of the extract: extract at 10 g of polyamines/kg of medium, glycine betaine quantity not given
Description: The effect of each of the extracts prepared according to example 1a), 1b) or 1c) was studied on the growth of various bacterial strains, under conditions with or without thermal stress, osmotic stress or acid/base stress. The extracts obtained in examples 1a), 1b) or 1c) were added to a culture medium in different quantities, in order to obtain the desired quantities of polyamines and/or tyramine.
The study was carried out in Spizizen Minimal Medium SMM culture broth ((NH4)2SO4: 2 g/L, K2HPO4: 14 g/L, KH2PO4: 6 g/L, MgSO4: 0.2 g/L, C6H5Na3O7·2H2O: 1 g/L, D-glucose: 5 g/L).
The starting inoculate for each strain was calibrated by OD measurement (620 nm) in order to obtain an initial concentration of approximately 10^3-10^4 CFU/mL. The strains were incubated for 24 to 72 h. Counts were performed in TSA agar (Tryptone Soya Agar) at TO and after 24 h, 48 h or 72 h incubation at 30° C. (+/−1° C.), according to the studied strains.
For each of the strains, the survival rate in the presence of the extract and/or stress was calculated relative to the bacterial concentration obtained at the end of the kinetics (at T=24 h, 48 h or 72 h) in the control mode containing the strain alone, under non-stressed conditions, without adding the extract. Similarly, the survival rate in the presence or absence of the extract and/or stress was calculated relative to the bacterial concentration obtained at the end of the kinetics in the mode containing the strain alone, under stress conditions, without adding the extract.
The strain Azotobacter chroococcum was tested under osmotic stress conditions, in other words by adding 0.3 M NaCl to the culture medium at time T=0.
The glycine betaine, known as an osmoprotectant, was tested in comparison with the Ascophyllum nodosum extract prepared according to example 1a).

[1] = non-stressing conditions (no NaCl), 72 h

SMILES: C[N+](C)(C)CC(=O)[O-] [glycine betaine]
- Bacterial concentration at 72 h [1]: 1.1 · 10^8 CFU/mL
- Survival rate relative to the strain under non-stressing conditions without addition of the extract [1]: 0.3 log
- Survival rate relative to the strain under salt stress conditions, without addition of the extract [1]: 5.1 log
- stabilisation of Azotobacter chroococcum under osmotic stress (osmotic stress 0.3 M NaCl): no stabilisation is observed
- loss in the bacterial concentration after 72 h incubation relative to the stress conditions (salt stress 0.3 M NaCl, 72 h): 0.8 logs
- Bacterial concentration at 72 h (salt stress 0.3 M NaCl, 72 h): 1.4 · 10^2 CFU/mL
- Survival rate relative to the strain under non-stressing conditions without addition of the extract (salt stress 0.3 M NaCl, 72 h): −5.6 log
- Survival rate relative to the strain under salt stress conditions, without addition of the extract (salt stress 0.3 M NaCl, 72 h): −0.8 log
